Results from PubChem BioAssay AID328 (DTP/NCI, 2004).
Values joined by “and” are separate entries in the source; they are usually repeats but may differ in a detail not shown here. Equal values may be shown once. Toxic doses and inconclusive results are not listed. How the source made its calls: active means survival T/C of 150% or more; inactive means T/C below 125% in these data.

System: BDF1 mice, P388 leukemia ip, median survival T/C
Assay: NCI In Vivo Anticancer Drug Screen. Data for tumor model P388 Leukemia (intraperitoneal) in B6D2F1 (BDF1) mice
Conditions: endpoint: median survival time, higher = longer survival
Summary of the method: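 Read-out is survival of treated animals expressed relative to the vehicle group, as a T/C ratio.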

[1] = dose: 100.0 mg/kg/injection, schedule: Q01DX009 (ip), vehicle: Klucel (hydroxypropylcellulose) (HPC)
[2] = dose: 100.0 mg/kg/injection, schedule: Q04DX003 (ip), vehicle: Klucel (hydroxypropylcellulose) (HPC)
[3] = dose: 200.0 mg/kg/injection, schedule: Q01DX009 (ip), vehicle: Klucel (hydroxypropylcellulose) (HPC)
[4] = dose: 200.0 mg/kg/injection, schedule: Q04DX003 (ip), vehicle: Klucel (hydroxypropylcellulose) (HPC)
[5] = dose: 400.0 mg/kg/injection, schedule: Q01DX009 (ip), vehicle: Klucel (hydroxypropylcellulose) (HPC)
[6] = dose: 100.0 mg/kg/injection, schedule: Q04DX003 (ip), vehicle: saline with Tween-80
[7] = dose: 200.0 mg/kg/injection, schedule: Q04DX003 (ip), vehicle: saline with Tween-80
[8] = dose: 400.0 mg/kg/injection, schedule: Q04DX003 (ip), vehicle: saline with Tween-80
[9] = dose: 100.0 mg/kg/injection, schedule: Q01DX009 (ip), vehicle: saline with Tween-80
[10] = dose: 200.0 mg/kg/injection, schedule: Q01DX009 (ip), vehicle: saline with Tween-80
[11] = dose: 400.0 mg/kg/injection, schedule: Q01DX009 (ip), vehicle: saline with Tween-80
[12] = dose: 50.0 mg/kg/injection, schedule: Q01DX009 (ip), vehicle: Klucel (hydroxypropylcellulose) (HPC)
[13] = dose: 50.0 mg/kg/injection, schedule: Q04DX003 (ip), vehicle: Klucel (hydroxypropylcellulose) (HPC)
[14] = dose: 50.0 mg/kg/injection, schedule: Q04DX003 (ip), vehicle: saline

Measured: T/C

C(=N\Nc1nc2ccccc2s1)/c1ccc(/C=N/Nc2nc3ccccc3s2)cc1
inactive: [1] 109 % of control | [2] 104 % of control | [3] 114 % of control | [4] 100 % of control | [5] 100 % of control | dose: 400.0 mg/kg/injection, schedule: Q04DX003 (ip), vehicle: Klucel (hydroxypropylcellulose) (HPC) 104 % of control

CC1(C)O[C@]2(C)CC[C@@H]1[C@@H](O)[C@@H]2N1CCOCC1
inactive: dose: 50.0 mg/kg/injection, schedule: Q01DX005 (ip), vehicle: saline 108 % of control | dose: 100.0 mg/kg/injection, schedule: Q01DX005 (ip), vehicle: saline 106 % of control | dose: 200.0 mg/kg/injection, schedule: Q01DX005 (ip), vehicle: saline 104 % of control

CN(C)c1ccc(C=Nc2c(N)n(C)c(=O)n(C)c2=O)cc1
inactive: [6] 101 % of control | [7] 92 % of control | [8] 93 % of control

COc1cc2oc3ccccc3c(=O)c2cc1CSc1ccccc1N
inactive: dose: 50.0 mg/kg/injection, schedule: Q01DX009 (ip), vehicle: saline with Tween-80 123 % of control | [9] 88 % of control | [10] 90 % of control

CC(=O)C(C)(NCc1ccccc1)c1ccccc1 (stereo not given)
inactive: dose: 45.0 mg/kg/injection, schedule: Q01DX001 (ip), vehicle: saline 104 % of control | dose: 85.0 mg/kg/injection, schedule: Q01DX001 (ip), vehicle: saline 108 % of control and 116 % of control | dose: 100.0 mg/kg/injection, schedule: Q01DX001 (ip), vehicle: saline 109 % of control | dose: 135.0 mg/kg/injection, schedule: Q01DX001 (ip), vehicle: saline 120 % of control | dose: 200.0 mg/kg/injection, schedule: Q01DX001 (ip), vehicle: saline 104 % of control | dose: 300.0 mg/kg/injection, schedule: Q01DX001 (ip), vehicle: saline 100 % of control | dose: 400.0 mg/kg/injection, schedule: Q01DX001 (ip), vehicle: saline 104 % of control

Cc1[nH]c(C)c(C(=O)OC2CCN(C)CC2)c1C
inactive: dose: 6.25 mg/kg/injection, schedule: Q04DX003 (ip), vehicle: saline with Tween-80 103 % of control | dose: 12.5 mg/kg/injection, schedule: Q04DX003 (ip), vehicle: saline with Tween-80 100 % of control | dose: 25.0 mg/kg/injection, schedule: Q04DX003 (ip), vehicle: saline with Tween-80 91 % of control

C/C=C/CCCCCCCC(=O)OCCCC
inactive: [9] 109 % of control | [6] 110 % of control | [10] 95 % of control | [7] 105 % of control | [11] 113 % of control | [8] 120 % of control

N#CC(C#N)C1c2ccccc2C([N+](=O)[O-])c2ccccc21 (stereo not given)
inactive: [9] 112 % of control | [10] 116 % of control | [11] 112 % of control

C#CCOC(=O)NC1CCCCC1
inactive: [12] 100 % of control | [13] 100 % of control | [1] 100 % of control | [2] 95 % of control | [3] 100 % of control | [4] 109 % of control

CCCCN1C/C(=C\c2ccc(Br)cc2)C(=O)/C(=C/c2ccc(Br)cc2)C1
inactive: dose: 6.25 mg/kg/injection, schedule: Q01DX005 (ip), vehicle: saline with Tween-80 91 % of control | dose: 12.5 mg/kg/injection, schedule: Q01DX005 (ip), vehicle: saline with Tween-80 95 % of control

CCOC(=O)CCN(CC(=O)OCC)C(C)C
inactive: [9] 104 % of control | [6] 95 % of control | [10] 104 % of control | [7] 104 % of control | [11] 109 % of control | [8] 95 % of control

O=[N+]([O-])c1ccccc1N=P(c1ccccc1)(c1ccccc1)c1ccccc1
inactive: dose: 50.0 mg/kg/injection, schedule: Q01DX009 (ip), vehicle: DMSO 109 % of control | dose: 50.0 mg/kg/injection, schedule: Q04DX003 (ip), vehicle: DMSO 100 % of control | dose: 100.0 mg/kg/injection, schedule: Q01DX009 (ip), vehicle: DMSO 104 % of control | dose: 100.0 mg/kg/injection, schedule: Q04DX003 (ip), vehicle: DMSO 104 % of control | dose: 200.0 mg/kg/injection, schedule: Q04DX003 (ip), vehicle: DMSO 90 % of control

O=S1(=O)CCN(Cc2ccccc2)CC1
inactive: [12] 96 % of control | [1] 96 % of control | [3] 91 % of control

CC(C)(C)C#C[P+](C#CC(C)(C)C)(Cc1ccccc1)c1ccccc1
inactive: dose: 12.5 mg/kg/injection, schedule: Q01DX009 (ip), vehicle: saline 96 % of control | dose: 12.5 mg/kg/injection, schedule: Q04DX003 (ip), vehicle: saline 123 % of control | dose: 25.0 mg/kg/injection, schedule: Q04DX003 (ip), vehicle: saline 123 % of control | [14] 107 % of control

O=c1[nH]cc(CCc2ccccc2)c(=O)[nH]1
inactive: dose: 100.0 mg/kg/injection, schedule: Q01DX001 (ip), vehicle: Klucel (hydroxypropylcellulose) (HPC) 105 % of control | [1] 100 % of control | [2] 104 % of control | [3] 88 % of control | [4] 100 % of control | dose: 400.0 mg/kg/injection, schedule: Q01DX001 (ip), vehicle: Klucel (hydroxypropylcellulose) (HPC) 105 % of control | [5] 92 % of control

O=C(O)CCSSCCC(=O)O
inactive: [2] 95 % of control | [4] 100 % of control

CCn1c(O)c(C=N)c(=O)[nH]c1=O
inactive: dose: 50.0 mg/kg/injection, schedule: Q01DX009 (ip), vehicle: saline 100 % of control | [14] 103 % of control | dose: 100.0 mg/kg/injection, schedule: Q01DX009 (ip), vehicle: saline 109 % of control | dose: 100.0 mg/kg/injection, schedule: Q04DX003 (ip), vehicle: saline 100 % of control | dose: 200.0 mg/kg/injection, schedule: Q01DX009 (ip), vehicle: saline 109 % of control | dose: 200.0 mg/kg/injection, schedule: Q04DX003 (ip), vehicle: saline 115 % of control

CCc1cc2c(cc1C(=O)/C=C\C(=O)O)C(C)(C)CCC2(C)C
inactive: dose: 2.5 mg/kg/injection, schedule: Q01DX009 (ip), vehicle: Klucel (hydroxypropylcellulose) (HPC) 102 % of control | dose: 5.0 mg/kg/injection, schedule: Q01DX009 (ip), vehicle: Klucel (hydroxypropylcellulose) (HPC) 99 % of control | dose: 10.0 mg/kg/injection, schedule: Q01DX009 (ip), vehicle: Klucel (hydroxypropylcellulose) (HPC) 100 % of control

CCOC(=O)c1ccc(C(=O)OCC)c(Cl)n1
inactive: dose: 25.0 mg/kg/injection, schedule: Q01DX009 (ip), vehicle: Klucel (hydroxypropylcellulose) (HPC) 112 % of control | dose: 25.0 mg/kg/injection, schedule: Q04DX003 (ip), vehicle: Klucel (hydroxypropylcellulose) (HPC) 95 % of control | [12] 95 % of control | [13] 100 % of control | [1] 87 % of control | [2] 86 % of control and 91 % of control

COc1ccc(-c2cc(=O)c3cc(OC)c(OC)cc3o2)cc1OC
inactive: dose: 1.88 mg/kg/injection, schedule: Q01DX009 (ip), vehicle: saline 94 % of control | dose: 3.75 mg/kg/injection, schedule: Q01DX009 (ip), vehicle: saline 91 % of control

COc1cc(OC)c(NC(=S)Nc2cc(C)ccc2OC)cc1Cl
inactive: dose: 12.5 mg/kg/injection, schedule: Q01DX009 (ip), vehicle: DMSO 97 % of control | dose: 25.0 mg/kg/injection, schedule: Q01DX009 (ip), vehicle: DMSO 93 % of control

O=[N+]([O-])c1ccc(N=N/C(Cc2ccccc2)=N\Nc2ccccc2)cc1
inactive: [1] 100 % of control | [3] 100 % of control

CSc1ccc(NC(=O)NNP(=S)(Oc2ccc(C(C)(C)C)cc2)Oc2ccc(C(C)(C)C)cc2)cc1
inactive: dose: 50.0 mg/kg/injection, schedule: Q01DX005 (ip), vehicle: saline with Tween-80 96 % of control | dose: 100.0 mg/kg/injection, schedule: Q01DX005 (ip), vehicle: saline with Tween-80 96 % of control

CC(C)Oc1ccc2c(c1)Sc1ccc(Cl)cc1N2
inactive: [9] 104 % of control | [10] 104 % of control | [11] 104 % of control
